Earlier results on 1 molecule are cited in US9339471B2, “Long acting dual release product containing carbinoxamine and pseudoephedrine” (E5 PHARMA, LLC, priority 2007, dated 2016).

For this data set the following is noted: dependent on urine pH; cited from earlier work.

As to `CN[C@@H](C)[C@@H](O)c1ccccc1.Cl` (relative stereo) [Pseudoephedrine, [S—(R*,R*)]-α-[1-(methylamino)ethyl]-benzenemethanol hydrochloride], the mean elimination half-life is 4 to 6 h.
